Results: paper PMC5240934, “Molecular Mechanism of Disease-Associated Mutations in the Pre-M1 Helix of NMDA Receptors and Potential Rescue Pharmacology” (PLoS Genetics, 2017)
Read-outs that look alike come from different tables or passages of the source.

Tests used:
Test in all cases: two-electrode voltage clamp, Xenopus oocytes
Assay type in all cases: cell-based
[1] = biological target: T1, human GluN1/GluN2A (Homo sapiens, UniProt Q05586+Q12879, Q12879:P552R)
T1 construct: gene GRIN1; full open reading frames in pCI-neo, cRNA in Xenopus laevis oocytes; di-heteromeric tetramer
T1 sequence (Q12879 23-1464 P552R, other chains not shown): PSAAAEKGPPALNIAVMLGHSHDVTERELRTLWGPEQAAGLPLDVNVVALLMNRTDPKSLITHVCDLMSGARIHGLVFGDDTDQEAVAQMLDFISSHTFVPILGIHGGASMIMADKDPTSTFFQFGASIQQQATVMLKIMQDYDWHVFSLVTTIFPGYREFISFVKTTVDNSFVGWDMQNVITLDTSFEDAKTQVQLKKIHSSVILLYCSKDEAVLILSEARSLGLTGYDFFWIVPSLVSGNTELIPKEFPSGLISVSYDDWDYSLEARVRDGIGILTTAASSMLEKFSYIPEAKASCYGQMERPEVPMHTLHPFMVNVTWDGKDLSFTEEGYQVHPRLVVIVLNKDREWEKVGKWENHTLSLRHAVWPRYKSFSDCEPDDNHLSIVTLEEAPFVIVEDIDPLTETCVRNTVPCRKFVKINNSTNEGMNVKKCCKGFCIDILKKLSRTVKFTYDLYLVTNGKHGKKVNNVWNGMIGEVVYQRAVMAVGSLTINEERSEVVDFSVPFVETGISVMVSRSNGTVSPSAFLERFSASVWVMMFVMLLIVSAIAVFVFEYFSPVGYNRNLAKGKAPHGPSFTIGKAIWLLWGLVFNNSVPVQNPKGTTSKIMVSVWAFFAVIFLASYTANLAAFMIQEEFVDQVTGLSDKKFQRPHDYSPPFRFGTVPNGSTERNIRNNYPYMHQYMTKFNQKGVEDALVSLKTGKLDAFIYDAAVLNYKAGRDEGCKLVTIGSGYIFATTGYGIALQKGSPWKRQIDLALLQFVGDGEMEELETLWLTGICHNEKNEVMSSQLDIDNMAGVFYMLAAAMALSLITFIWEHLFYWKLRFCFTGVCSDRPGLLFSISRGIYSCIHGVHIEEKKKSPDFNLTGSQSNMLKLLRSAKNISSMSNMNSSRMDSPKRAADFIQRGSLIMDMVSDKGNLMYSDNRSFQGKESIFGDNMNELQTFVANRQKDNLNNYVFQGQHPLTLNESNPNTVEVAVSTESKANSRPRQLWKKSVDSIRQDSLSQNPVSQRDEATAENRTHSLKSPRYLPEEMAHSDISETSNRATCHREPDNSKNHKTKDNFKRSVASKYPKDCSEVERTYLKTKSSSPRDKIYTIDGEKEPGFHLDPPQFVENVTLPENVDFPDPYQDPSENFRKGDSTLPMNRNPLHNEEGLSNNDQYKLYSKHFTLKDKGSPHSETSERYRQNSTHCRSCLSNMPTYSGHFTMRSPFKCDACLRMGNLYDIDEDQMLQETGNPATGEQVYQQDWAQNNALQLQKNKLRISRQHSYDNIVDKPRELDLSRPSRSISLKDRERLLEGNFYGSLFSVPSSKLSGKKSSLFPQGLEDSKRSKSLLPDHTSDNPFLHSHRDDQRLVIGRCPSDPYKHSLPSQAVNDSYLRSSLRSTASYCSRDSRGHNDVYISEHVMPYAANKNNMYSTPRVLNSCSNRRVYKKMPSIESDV
Description: (§1) two-electrode voltage clamp, Xenopus oocytes on human GluN1/GluN2A

[2] = biological target: T2, human GluN1/GluN2A (Homo sapiens, UniProt Q05586+Q12879)
T2 construct: gene GRIN1; full open reading frames in pCI-neo, cRNA in Xenopus laevis oocytes; di-heteromeric tetramer
T2 sequence (Q12879 23-1464, other chains not shown): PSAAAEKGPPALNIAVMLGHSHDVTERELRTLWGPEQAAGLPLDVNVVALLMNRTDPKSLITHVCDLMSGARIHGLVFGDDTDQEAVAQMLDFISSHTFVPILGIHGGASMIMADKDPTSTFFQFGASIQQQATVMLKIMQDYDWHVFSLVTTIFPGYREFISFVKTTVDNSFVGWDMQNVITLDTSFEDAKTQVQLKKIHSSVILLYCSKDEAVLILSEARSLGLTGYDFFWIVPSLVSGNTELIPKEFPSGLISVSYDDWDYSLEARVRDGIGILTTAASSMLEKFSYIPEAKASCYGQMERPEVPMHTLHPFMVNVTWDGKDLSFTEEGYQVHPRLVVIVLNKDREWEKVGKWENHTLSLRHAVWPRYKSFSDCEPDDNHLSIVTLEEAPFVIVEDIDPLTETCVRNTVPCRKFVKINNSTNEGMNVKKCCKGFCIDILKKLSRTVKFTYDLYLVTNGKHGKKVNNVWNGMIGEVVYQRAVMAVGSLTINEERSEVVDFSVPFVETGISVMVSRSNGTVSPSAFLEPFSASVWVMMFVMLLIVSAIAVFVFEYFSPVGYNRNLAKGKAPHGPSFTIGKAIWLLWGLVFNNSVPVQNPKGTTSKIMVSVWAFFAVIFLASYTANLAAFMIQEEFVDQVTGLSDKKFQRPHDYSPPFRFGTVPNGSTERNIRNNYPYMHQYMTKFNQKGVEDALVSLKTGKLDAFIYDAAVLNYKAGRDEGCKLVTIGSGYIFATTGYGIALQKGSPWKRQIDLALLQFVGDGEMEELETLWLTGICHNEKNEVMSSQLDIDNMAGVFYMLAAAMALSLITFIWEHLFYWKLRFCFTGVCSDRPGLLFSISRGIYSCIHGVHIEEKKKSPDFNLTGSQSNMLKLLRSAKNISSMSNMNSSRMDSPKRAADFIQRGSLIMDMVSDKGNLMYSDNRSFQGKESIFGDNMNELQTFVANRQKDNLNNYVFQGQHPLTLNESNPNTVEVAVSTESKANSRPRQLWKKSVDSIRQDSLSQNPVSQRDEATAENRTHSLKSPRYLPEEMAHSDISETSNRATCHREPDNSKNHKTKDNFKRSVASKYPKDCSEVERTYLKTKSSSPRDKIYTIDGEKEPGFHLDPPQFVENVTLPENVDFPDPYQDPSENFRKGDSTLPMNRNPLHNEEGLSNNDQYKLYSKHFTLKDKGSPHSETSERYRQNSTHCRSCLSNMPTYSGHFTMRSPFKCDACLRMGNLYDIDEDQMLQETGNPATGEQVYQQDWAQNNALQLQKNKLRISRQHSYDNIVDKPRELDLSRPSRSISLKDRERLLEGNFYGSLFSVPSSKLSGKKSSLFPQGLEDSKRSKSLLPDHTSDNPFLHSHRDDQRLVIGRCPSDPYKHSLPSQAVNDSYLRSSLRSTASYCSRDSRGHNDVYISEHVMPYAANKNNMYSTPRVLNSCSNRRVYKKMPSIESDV
Description: as §1

[3] = biological target: T3, rat GluN1/GluN2D (Rattus norvegicus, UniProt P35439+Q62645)
T3 construct: gene Grin1; full-length subunits in pCI-neo, cRNA in Xenopus laevis oocytes; di-heteromeric tetramer
Description: two-electrode voltage clamp, Xenopus oocytes on rat GluN1/GluN2D

[4] = biological target: T4, human GluN1/GluN2B (Homo sapiens, UniProt Q05586+Q13224, Q05586:D552E)
T4 construct: gene GRIN1; full open reading frames in pCI-neo, cRNA in Xenopus laevis oocytes; di-heteromeric tetramer
Description: (§2) two-electrode voltage clamp, Xenopus oocytes on human GluN1/GluN2B

[5] = biological target: T5, human GluN1/GluN2B (Homo sapiens, UniProt Q05586+Q13224, Q13224:P553R)
T5 construct: gene GRIN1; full open reading frames in pCI-neo, cRNA in Xenopus laevis oocytes; di-heteromeric tetramer
Description: as §2

[6] = biological target: T6, human GluN1/GluN2B (Homo sapiens, UniProt Q05586+Q13224, Q05586:P557R)
T6 construct: gene GRIN1; full open reading frames in pCI-neo, cRNA in Xenopus laevis oocytes; di-heteromeric tetramer
Description: as §2

[7] = biological target: T7, human GluN1/GluN2A (Homo sapiens, UniProt Q05586+Q12879, Q05586:D552E)
T7 construct: gene GRIN1; full open reading frames in pCI-neo, cRNA in Xenopus laevis oocytes; di-heteromeric tetramer
Description: as §1

[8] = biological target: T8, human GluN1/GluN2A (Homo sapiens, UniProt Q05586+Q12879, Q05586:P557R)
T8 construct: gene GRIN1; full open reading frames in pCI-neo, cRNA in Xenopus laevis oocytes; di-heteromeric tetramer
Description: as §1

[9] = biological target: T9, human GluN1/GluN2A (Homo sapiens, UniProt Q05586+Q12879, Q12879:A548T)
T9 construct: gene GRIN1; full open reading frames in pCI-neo, cRNA in Xenopus laevis oocytes; di-heteromeric tetramer
T9 sequence (Q12879 23-1464 A548T, other chains not shown): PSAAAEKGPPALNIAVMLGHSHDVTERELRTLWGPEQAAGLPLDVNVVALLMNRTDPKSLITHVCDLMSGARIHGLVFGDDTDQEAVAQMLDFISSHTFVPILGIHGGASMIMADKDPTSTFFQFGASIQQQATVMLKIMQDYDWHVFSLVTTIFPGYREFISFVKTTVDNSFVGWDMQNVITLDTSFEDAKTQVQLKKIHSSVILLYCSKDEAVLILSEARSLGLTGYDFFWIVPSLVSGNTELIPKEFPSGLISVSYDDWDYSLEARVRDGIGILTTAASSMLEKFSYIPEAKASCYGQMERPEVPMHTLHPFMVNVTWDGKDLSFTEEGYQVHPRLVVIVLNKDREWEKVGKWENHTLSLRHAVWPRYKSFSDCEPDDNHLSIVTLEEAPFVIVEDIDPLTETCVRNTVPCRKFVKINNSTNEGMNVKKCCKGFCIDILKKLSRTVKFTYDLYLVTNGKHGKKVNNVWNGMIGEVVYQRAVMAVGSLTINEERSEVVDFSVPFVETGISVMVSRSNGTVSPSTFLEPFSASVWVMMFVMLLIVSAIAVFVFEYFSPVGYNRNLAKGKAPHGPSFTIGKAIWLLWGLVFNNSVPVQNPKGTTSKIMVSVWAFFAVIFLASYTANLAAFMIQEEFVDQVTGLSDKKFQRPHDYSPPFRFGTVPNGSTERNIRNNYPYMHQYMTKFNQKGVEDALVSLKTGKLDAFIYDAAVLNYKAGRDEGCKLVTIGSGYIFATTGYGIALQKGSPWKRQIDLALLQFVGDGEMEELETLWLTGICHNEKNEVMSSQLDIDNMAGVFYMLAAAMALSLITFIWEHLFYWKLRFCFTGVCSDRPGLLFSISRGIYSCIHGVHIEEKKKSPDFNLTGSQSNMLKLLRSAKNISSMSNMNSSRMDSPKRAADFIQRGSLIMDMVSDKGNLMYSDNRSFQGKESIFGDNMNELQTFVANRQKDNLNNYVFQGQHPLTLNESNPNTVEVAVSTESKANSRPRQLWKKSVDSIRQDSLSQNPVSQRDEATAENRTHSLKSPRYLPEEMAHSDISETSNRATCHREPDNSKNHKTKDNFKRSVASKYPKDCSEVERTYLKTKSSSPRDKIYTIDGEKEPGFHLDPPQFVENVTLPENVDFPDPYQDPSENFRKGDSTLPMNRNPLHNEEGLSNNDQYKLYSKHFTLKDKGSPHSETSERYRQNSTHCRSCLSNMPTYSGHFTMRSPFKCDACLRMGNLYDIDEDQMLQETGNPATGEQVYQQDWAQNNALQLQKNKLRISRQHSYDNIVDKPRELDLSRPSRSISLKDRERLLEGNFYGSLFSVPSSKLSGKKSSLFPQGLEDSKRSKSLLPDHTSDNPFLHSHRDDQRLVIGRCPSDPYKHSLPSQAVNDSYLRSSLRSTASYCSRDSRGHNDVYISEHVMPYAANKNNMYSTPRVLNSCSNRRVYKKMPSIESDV
Description: as §1

[10] = read-out: IC50 (n; max inhibition) / GluN2A-P552R

NC12CC3CC(CC(C3)C1)C2 [Amantadine]
IC50 [1, 10]: 86 ± 22 µM
IC50 ([2]; read-out: IC50 (n; max inhibition) / GluN2A-WT): 126 ± 17 µM

COc1ccc2c(c1)[C@]13CCCC[C@@H]1[C@H](C2)N(C)CC3 [Dextromethorphan]
IC50 [1, 10]: 15 ± 4.6 µM
IC50 ([2]; channel blocker, -40 mV, pH 7.4, no Mg2+, 23 °C, read-out: IC50 (n; max inhibition) / GluN2A-WT): 18 ± 2.9 µM

N[C@@H](CCC(=O)O)C(=O)O [Glutamate]
EC50 [3]: 400 ± 70 nM

NCC(=O)O [Glycine]
EC50 [4]: 660 ± 70 nM
EC50 [5]: 50 ± 10 nM
EC50 [6]: 70 ± 10 nM
EC50 [7]: 3.7 ± 0.32 µM
EC50 ([1]; read-out: Di-heteromeric NMDA Receptors / GluN2A-P552R): 60 ± 10 nM
EC50 [2]: 1400 ± 140 nM
EC50 [8]: 180 ± 20 nM
EC50 [9]: 2400 ± 90 nM

CNC1(c2ccccc2Cl)CCCCC1=O (stereo not drawn) [Ketamine]
IC50 [1]: 1.3 ± 0.2 µM
IC50 [2]: 4.7 ± 0.8 µM
